Measured values as given in patent US20260055108A1, “TRIAZINE COMPOUNDS AND USES THEREOF” (HUTCHMED LIMITED, priority 2022, published 2026).
Read-outs that look alike come from different tables or passages of the source.

How the values were obtained:
[1] = system: MV-4-11 cells (human acute myelogenous leukemia cell line carrying MLL-AF4 mutation); assay: Cell proliferation assay, MV-4-11 (CellTiter-Glo); format: cell-based; details: Homo sapiens, MV4-11, 72 h
Outline: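 MV-4-11 cells (3000/well, IMDM with 10% HIFBS and 50 μM β-mercaptoethanol) exposed to compound at 1.100–0.001 μM final, 0.1% DMSO, for 3 days at 37°C. Viability read by CellTiter-Glo luminescence on day 0 and day 3, normalised to day-0 and untreated wells.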

[2] = target: Recombinant human Menin protein (2-610) / MLL polypeptide binding (Homo sapiens (Human), UniProt O00255); assay: Menin and MLL protein binding at a molecular level (fluorescence polarization method); details: inhibition of Menin / MLL polypeptide binding
Outline: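 Binding of recombinant human Menin (2-610) to 6-FAM-labelled MLL peptide measured by fluorescence polarization (ex 480/em 535 nm) in Tris/NaCl/TCEP buffer, pH 7.5, 2% DMSO. Compound preincubated with Menin 30 min at room temperature, then peptide added for 30 min in the dark. Tested at 1.000 down to 0.0005 μM final.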

[3] = MV-4-11 cells, 3 days treatment, CellTiter-Glo, read-out: GI50

Recombinant human Menin protein (2-610) / MLL polypeptide binding, sequence (O00255 2-610): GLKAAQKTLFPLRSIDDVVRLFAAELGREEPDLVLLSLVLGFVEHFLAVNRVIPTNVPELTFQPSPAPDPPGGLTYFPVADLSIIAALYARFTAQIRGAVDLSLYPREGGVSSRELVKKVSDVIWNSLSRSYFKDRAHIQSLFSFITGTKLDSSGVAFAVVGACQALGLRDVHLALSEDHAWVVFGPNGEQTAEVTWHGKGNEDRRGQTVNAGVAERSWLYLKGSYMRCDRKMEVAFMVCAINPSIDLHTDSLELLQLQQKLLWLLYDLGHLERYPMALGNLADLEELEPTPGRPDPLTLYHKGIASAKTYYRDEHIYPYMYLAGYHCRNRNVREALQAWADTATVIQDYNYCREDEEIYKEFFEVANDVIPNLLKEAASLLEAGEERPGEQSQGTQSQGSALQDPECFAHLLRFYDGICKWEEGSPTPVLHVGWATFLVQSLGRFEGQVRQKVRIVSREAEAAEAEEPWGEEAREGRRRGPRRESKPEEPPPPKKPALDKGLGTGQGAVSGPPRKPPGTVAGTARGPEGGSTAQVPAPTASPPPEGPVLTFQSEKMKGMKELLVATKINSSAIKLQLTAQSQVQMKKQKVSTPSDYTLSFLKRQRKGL

`Cc1nc(-c2cc(F)ccc2Oc2nncnc2N2CC3(CCN(CC4CCN(c5ccc(C#N)cn5)CC4)CC3)C2)n(C(C)C)n1` [Compound 118] showed a GI50 [1, 3] greater than 3300 nM and an IC50 [2] greater than 1000 nM.

`CCN(C(=O)c1cc(F)ccc1Oc1nncnc1N1CC2(CCN(Cc3ccc(NC(=O)CC#N)cc3C)CC2)C1)C(C)C` [Compound 17] gave a GI50 [1, 3] of 50 nM and an IC50 [2] of 48.7 nM.

Compound `CCN(C(=O)c1cc(F)ccc1Oc1nncnc1N1CC2(CCN(CC3CCN(C(=O)OC)CC3)CC2)C1)C(C)C` [Compound 170, methyl 4-((2-(6-(2-(ethyl(isopropyl)carbamoyl)-4-fluorophenoxy)-1,2,4-triazin-5-yl)-2,7-diazaspiro[3.5]nonan-7-yl)methyl)piperidine-1-carboxylate] has a GI50 [1] of 49 nM and an IC50 [2] of 34.4 nM.

Compound `CCN(C(=O)c1cc(F)ccc1Oc1nncnc1N1CC2(CCN(CC3CCN(C(=O)C(F)(F)F)CC3)CC2)C1)C(C)C` [Compound 21] has a GI50 [1, 3] of 116 nM and an IC50 [2] of 97.9 nM.

Work on `CCN(C(=O)c1cc(F)ccc1Oc1nncnc1N1CC2(CCN(CC3CCN(C(=O)CNC4CC4)CC3)CC2)C1)C(C)C` [Compound 7] yielded a GI50 [1, 3] of 80 nM and an IC50 [2] of 50.2 nM.

With `CCN(C(=O)c1cc(F)ccc1Oc1nncnc1N1CC2(CCN(CC3CC=C(c4ccccn4)CC3)CC2)C1)C(C)C` (centres unmarked) [Compound 123] the GI50 [1, 3] was 39 nM and the IC50 [2] was 133 nM.

In the case of `COc1cc(N2CCC(CN3CCC4(CC3)CN(c3ncnnc3Oc3ccc(F)cc3C(=O)OC(C)C)C4)CC2)nnc1OC` [Compound 106], the GI50 [1, 3] is reported as 7 nM and the IC50 [2] is reported as 0.9 nM.

`CCN(C(=O)c1cc(F)ccc1Oc1nncnc1N1CC2(CCN(CC3CCN(c4ccc(C(F)(F)F)nn4)CC3)CC2)C1)C(C)C` [Compound 38, N-ethyl-5-fluoro-N-isopropyl-2-((5-(7-((1-(6-(trifluoromethyl)pyridazin-3-yl)piperidin-4-yl)methyl)-2,7-diazaspiro[3.5]nonan-2-yl)-1,2,4-triazin-6-yl)oxy)benzamide] showed a GI50 [1, 3] of 2 nM and an IC50 [2] of 1.7 nM.

`CCN(C(=O)c1cc(F)ccc1Oc1nncnc1N1CC2(CCN(CC3CCN(c4cc(OC)ccn4)CC3)CC2)C1)C(C)C` [Compound 113] showed a GI50 [1, 3] of 4 nM and an IC50 [2] of 1.9 nM.

`CCN(C(=O)c1cc(F)ccc1Oc1nncnc1N1CC2(CCN(CC3CCN(c4cc(C#N)cnn4)CC3)CC2)C1)C(C)C` [Compound 48] was tested, and the GI50 [1, 3] was 15 nM and the IC50 [2] was 4.7 nM.

Compound `CCN(C(=O)c1cc(F)ccc1Oc1nncnc1N1CC2(CCN(CC3CCN(C(=O)NCCOC)CC3)CC2)C1)C(C)C` [Compound 35] has a GI50 [1, 3] of 35 nM and an IC50 [2] of 10.7 nM.

Work on `CCN(C(=O)c1cc(F)ccc1Oc1nncnc1N1CC2(CCN(CC3CCN(c4cc(C)c(OC)nn4)CC3)CC2)C1)C(C)C` [Compound 97] yielded a GI50 [1, 3] of 1 nM and an IC50 [2] of 0.9 nM.

Compound `CCN(C(=O)c1cc(F)ccc1Oc1nncnc1N1CC2(CCN(C(C)C3CCN(c4cc(OC)c(OC)nn4)CC3)CC2)C1)C(C)C` (centres unmarked) [Compound 171, 2-((5-(7-(1-(1-(5,6-dimethoxypyridazin-3-yl)piperidin-4-yl)ethyl)-2,7-diazaspiro[3.5]nonan-2-yl)-1,2,4-triazin-6-yl)oxy)-N-ethyl-5-fluoro-N-isopropylbenzamide] has a GI50 [1, 3] of 56 nM and an IC50 [2] of 41.3 nM.

`CCN(C(=O)c1cc(F)ccc1Oc1nncnc1N1CC2(CCN(Cc3ccc4oc(C#N)cc4c3)CC2)C1)C(C)C` [Compound 69] was tested, and the GI50 [1, 3] was 16 nM and the IC50 [2] was 8.5 nM.

`CCN(C(=O)c1cc(F)ccc1Oc1nncnc1N1CC(C2(NCc3ccc4[nH]c(C#N)cc4c3C)CC2)C1)C(C)C` [Compound 127] gave a GI50 [1, 3] of 242 nM and an IC50 [2] of 24.3 nM.

`CCN(C(=O)c1cc(F)ccc1Oc1nncnc1N1CC2(CCN(C(=O)C3CCN(c4ccccn4)CC3)CC2)C1)C(C)C` [Compound 172, N-ethyl-5-fluoro-N-isopropyl-2-((5-(7-(1-(pyridin-2-yl)piperidine-4-carbonyl)-2,7-diazaspiro[3.5]nonan-2-yl)-1,2,4-triazin-6-yl)oxy)benzamide] showed a GI50 [1, 3] of 76 nM and an IC50 [2] greater than 200 nM.

`CCN(C(=O)c1cc(F)ccc1Oc1nncnc1N1CC2(CCN(Cc3ccc4nc(C)ncc4c3)CC2)C1)C(C)C` [Compound 71] showed a GI50 [1, 3] of 1280 nM and an IC50 [2] greater than 1000 nM.

`CCN(C(=O)c1cc(F)ccc1Oc1nncnc1N1CC2(CCN(CC3CCN(C(=O)Nc4ccccc4F)CC3)CC2)C1)C(C)C` [Compound 36, 4-((2-(6-(2-(ethyl(isopropyl)carbamoyl)-4-fluorophenoxy)-1,2,4-triazin-5-yl)-2,7-diazaspiro[3.5]nonan-7-yl)methyl)-N-(2-fluorophenyl)piperidine-1-carboxamide] gave a GI50 [1, 3] of 16 nM and an IC50 [2] of 4.6 nM.

For `COc1cc(N2CCC(CN3CCC4(CC3)CN(c3ncnnc3Oc3ccc(F)cc3C(=O)N3CCC[C@H]3C)C4)CC2)nnc1OC` [Compound 100], the GI50 [1, 3] was 9 nM and the IC50 [2] was 1.9 nM.

Work on `CCN(C(=O)c1cc(F)ccc1Oc1nncnc1N1CC2(CCN(CC3CCN(c4ccc(Cl)nn4)CC3)CC2)C1)C(C)C` [Compound 46] yielded a GI50 [1, 3] of 2 nM and an IC50 [2] of 1.1 nM.

`CCN(C(=O)c1cc(F)ccc1Oc1nncnc1N1CC2(CCN(CC3CCN(c4cc5c(nn4)OCCO5)CC3)CC2)C1)C(C)C` [Compound 108] was tested, and the GI50 [1, 3] was 60 nM and the IC50 [2] was 21.6 nM.

Work on `CCN(C(=O)c1cc(F)ccc1Oc1nncnc1N1CCC2(CN(CC3CCN(c4cc(OC)c(OC)nn4)CC3)C2)C1)C(C)C` [Compound 94] yielded a GI50 [1, 3] of 2 nM and an IC50 [2] of 0.8 nM.

In the case of `CCN(C(=O)c1cc(F)ccc1Oc1nncnc1N1CC2(CCN(CC3CCN(c4ccc(C#N)cn4)CC3)CC2)C1)C(C)C` [Compound 50], the GI50 [1, 3] is reported as 7 nM and the IC50 [2] is reported as 5.4 nM.

In the case of `CCN(C(=O)c1cc(F)ccc1Oc1nncnc1N1CC2(CCN(CC3CCN(c4cccc(C(C)(C)O)n4)CC3)CC2)C1)C(C)C` [Compound 121], the GI50 [1, 3] is reported as 3 nM and the IC50 [2] is reported as 1.5 nM.

With `CCN(C(=O)c1cc(F)ccc1Oc1nncnc1N1CC2(CCN(Cc3ccc4oc(C)cc4c3)CC2)C1)C(C)C` [Compound 68] the GI50 [1, 3] was 71 nM and the IC50 [2] was 50.2 nM.

`CCN(C(=O)c1cc(F)ccc1Oc1nnc(NC)nc1N1CC2(CCN(Cc3ccc4c(cc(C#N)n4CCO)c3C)CC2)C1)C(C)C` [Compound 156] gave a GI50 [1, 3] of 48 nM and an IC50 [2] of 43.7 nM.

`N#Cc1ccc(N2CCC(CN3CCC4(CC3)CN(c3ncnnc3Oc3ccc(F)cc3C3=CCOCC3)C4)CC2)nc1` [Compound 117] gave a GI50 [1, 3] of 255 nM and an IC50 [2] of 175 nM.

`CCN(C(=O)c1cc(F)ccc1Oc1nncnc1N1CC2(CCN(CC3CCN(c4ccnnc4)CC3)CC2)C1)C(C)C` [Compound 167] showed a GI50 [1, 3] of 18 nM and an IC50 [2] of 14.9 nM.

Compound `CCN(C(=O)c1cc(F)ccc1Oc1nncnc1N1CC2(CCN(CC3CCN(C(=O)NC(C)C)CC3)CC2)C1)C(C)C` [Compound 29] has a GI50 [1, 3] of 15 nM and an IC50 [2] of 2.5 nM.

`CCN(C(=O)c1cc(F)ccc1Oc1nncnc1N1CC2(CCN(CC3CCN(C(=O)NC(C)(C)C)CC3)CC2)C1)C(C)C` [Compound 30] was tested, and the GI50 [1, 3] was 5 nM and the IC50 [2] was 1.7 nM.

`COc1cc(N2CCC(CN3CCC4(CC3)CN(c3ncnnc3Oc3ccc(F)cc3C(=O)N3CCCC3)C4)CC2)nnc1OC` [Compound 99] gave a GI50 [1, 3] of 26 nM and an IC50 [2] of 14.7 nM.

`CCN(C(=O)c1cc(F)ccc1Oc1nncnc1N1CC2(CCN(CC3(NCCOC)CC3)CC2)C1)C(C)C` [Compound 53] gave a GI50 [1, 3] of 87 nM and an IC50 [2] of 99 nM.

`CCN(C(=O)c1cc(F)ccc1Oc1nncnc1N1CC2(CCN(CC3CCN(C(=O)c4cnn(C)c4)CC3)CC2)C1)C(C)C` [Compound 16] was tested, and the GI50 [1, 3] was 113 nM and the IC50 [2] was 75 nM.

For `CCN(C(=O)c1cc(F)ccc1Oc1nncnc1N1CC2(CCN(CC3CCN(c4cc(C(N)=O)ccn4)CC3)CC2)C1)C(C)C` [Compound 52], the GI50 [1, 3] was 3 nM and the IC50 [2] was 0.9 nM.

In the case of `COc1cc(N2CCC(CN3CCC4(CC3)CN(c3ncnnc3Oc3ccc(F)cc3C(=O)O)C4)CC2)nnc1OC` [Compound 184, 2-((5-(7-((1-(5,6-dimethoxypyridazin-3-yl)piperidin-4-yl)methyl)-2,7-diazaspiro[3.5]nonan-2-yl)-1,2,4-triazin-6-yl)oxy)-5-fluorobenzoic acid], the GI50 [1, 3] is reported as greater than 1100 nM and the IC50 [2] is reported as greater than 100 nM.

`CCN(C(=O)c1cc(F)ccc1Oc1nncnc1N1CC2(CCN(CC3CCN(c4ccncn4)CC3)CC2)C1)C(C)C` [Compound 165, N-ethyl-5-fluoro-N-isopropyl-2-((5-(7-((1-(pyrimidin-4-yl)piperidin-4-yl)methyl)-2,7-diazaspiro[3.5]nonan-2-yl)-1,2,4-triazin-6-yl)oxy)benzamide] gave a GI50 [1, 3] of 13 nM and an IC50 [2] of 5.3 nM.

`CCN(C(=O)c1cc(F)ccc1Oc1nncnc1N1CC2(CCN(CC3CCN(c4ccc(C#N)cn4)CC3)CC2)C1)C1CC1` [Compound 116] showed a GI50 [1, 3] of 70 nM and an IC50 [2] of 53.5 nM.

`CCN(C(=S)c1cc(F)ccc1Oc1nncnc1N1CC2(CCN(CC3CCN(c4cc(OC)c(OC)nn4)CC3)CC2)C1)C(C)C` [Compound 107] was tested, and the GI50 [1, 3] was 9 nM and the IC50 [2] was 3.3 nM.

Compound `[2H]C(c1ccc2oc(C#N)cc2c1)N1CCC2(CC1)CN(c1ncnnc1Oc1ccc(F)cc1C(=O)N(CC)C(C)C)C2` (centres unmarked) [Compound 176] has a GI50 [1, 3] of 26 nM and an IC50 [2] of 6.1 nM.

`CCN(C(=O)c1cc(F)ccc1Oc1nncnc1N1CC2(CCN(CC3CCN(C(=O)NC4CCC4)CC3)CC2)C1)C(C)C` [Compound 32] was tested, and the GI50 [1, 3] was 4 nM and the IC50 [2] was 1 nM.

`CCN(C(=O)c1cc(F)ccc1Oc1nncnc1N1CC2(CCN(CC3CCN(c4cccnn4)CC3)CC2)C1)C(C)C` [Compound 166] gave a GI50 [1, 3] of 7 nM and an IC50 [2] of 2.6 nM.

`CCN(C(=O)c1cc(F)ccc1Oc1nncnc1N1CC2(CCN(CC3CCN(C[C@@H](O)CC#N)CC3)CC2)C1)C(C)C` [Compound 39] gave a GI50 [1, 3] of 97 nM and an IC50 [2] of 68.3 nM.

`CCN(C(=O)c1cc(F)ccc1Oc1nncnc1N1CC2(CCN(CC3CCN(c4ccc(C5CC5)nn4)CC3)CC2)C1)C(C)C` [Compound 44] was tested, and the GI50 [1, 3] was 14 nM and the IC50 [2] was 4.3 nM.
